According to US11331294B2, “Benzoquinone derivative E3330 in combination with chemotherapeutic agents for the treatment of bladder cancer” (Indiana University Research and Technology Corporation, priority 2007, dated 2022):

Assays:
[1] = test system: bladder cancer cells; assay: BrdU incorporation assay in cultured cells; format: cell-based; conditions: IC50 concentration, 24 hours; control 11.2%±0.84
Description: To determine the proliferation rate of cells in response to APE1/Ref-1 redox inhibitors, cells were grown in the culture conditions described above and treated with inhibitors as described above, in chamber slides. After 24 hours in culture with inhibitors or vehicle, all cells were treated with 3.1 μg/ml BrdU (in sterile PBS; 0.1%) for one hour. Cells were fixed and permeablized with 4% paraformaldehyde and stained for BrdU incorporation with the antibody and methodology described in the Roche BrdU labeling Kit, (Risch-Rotkreuz, Switzerland), using secondary antibodies. Positive cells were captured on a Leica 6000 fluorescent microscope and were quantified relative to Hoechst positive nuclei (total live cells).
To further characterize this effect, it was analyzed whether this reduced cell number was due to decreases in proliferation, increases in apoptosis, or both.

[2] = test system: survivin and Cyclin D1; assay: Western blot of survival and proliferation proteins in cells; format: cell-based, human; conditions: immunoblot
Description: FIGS. 36A-36H. […] In cytokine-induced T24 and UC3 cells NFκB-driven luciferase (FIG. 36A), STAT3-driven luciferase (FIG. 36B), and AP-1-driven luciferase (FIG. 36C) were quantified and normalized via Renilla following treatment with the corresponding cell growth-inhibitory IC50 concentrations. T24 cells were treated with APX2009 (8.5 μM) and APX2014 (6.5 μM), and UC3 cells were treated with APX2009 (6.1 μM) and APX2014 (4.6 μM) for 24 h. (*-p<0.05 APX treated vs vehicle, n=4). […] In the panels of FIGS. 36F & 36G, co-expression of survivin and APE1/Ref-1 was analyzed in superficial (FIG. 36F) and invasive human bladder tumors (FIG. 36G) in patients, and found nearly universal overlap of positivity in both in human samples. This was also true in cisplatin-refractory patients from the tissue microarray specimens (FIG. 36H).
Whole cell extracts were prepared using RIPA (radioimmunoprecipitation) buffer containing protein inhibitors (1:100 PMSF, 1:100 orthovanadate and 1:100 protease inhibitor). Total protein concentration was determined via Lowry or BCA assay. 10-50 μg/well of each lysate was separated by SDS-PAGE using a 12% SDS-polyacrylamide gel. Blots were blocked with 5% nonfat dry milk in 1×TBS for 1 h and incubated overnight with primary antibodies to either APE1/Ref-1 (1:1000 dilution, Novus, NB-100-116), survivin (1:1000, Cell Signaling), Cyclin D1 (1:500, Abcam), PARP-1 (1:1000, Cell Signaling) or GAPDH (1:5000, Cell Signaling). After blots were washed three-six times with TBS-Tween, blots were incubated with HRP-conjugated secondary mouse antibodies (1:5000, Pierce). After washing three-six times with TBS-Tween, blots were visualized by enhanced chemiluminescence (West Pico/West Femto, Pierce).
For further confirmation of a decrease in NFκB and STAT3 transcriptional activity, levels of survivin and Cyclin D1 were examined Both survivin and Cyclin D1 are known to be downstream targets of NFκB and STAT3. […] However, unlike APE1/Ref-1, survivin expression was primarily nuclear in both urothelial confined and invasive lesions.

[3] = test system: T24 human bladder cancer cells; assay: T24 subcutaneous flank xenograft; format: in vivo, athymic nude mice; conditions: for tumor weight at sacrifice: ip every 12 hours, vehicle 1.0±0.2 g; for tumor growth compared to vehicle control / reduction in survivin expression in harvested tumors: ip twice daily
Description: […] T24 human bladder cancer cells were grown in conditions described above and harvested with 0.05% Trypsin, centrifuged, and resuspended in a 50:50 solution of Matrigel: RPMI medium. For each subcutaneous tumor, a 100 μl volume of this suspension was implanted in the hind flank of […]. […] BrdU was injected into the animals 2 hours prior to sacrifice and tumor tissues were harvested and split into either snap frozen tissues for protein harvest and molecular analysis or fixed in formalin and processed for histological analysis, and then analyzed for survivin, Cyclin D1 levels (immunofluorescence and immunoblotting) for target protein assessment and BrdU incorporation (immunofluorescence).
Prior to sacrifice, mice were injected with BrdU and BrdU incorporation was visualized and quantitated via red fluorescence.

[4] = target: redox function of Ape1/Ref-1 (Homo sapiens, UniProt P27695); assay: Selective inhibition of the redox function of Ape1/Ref-1
Sequence of redox function of Ape1/Ref-1 (P27695 whole entry): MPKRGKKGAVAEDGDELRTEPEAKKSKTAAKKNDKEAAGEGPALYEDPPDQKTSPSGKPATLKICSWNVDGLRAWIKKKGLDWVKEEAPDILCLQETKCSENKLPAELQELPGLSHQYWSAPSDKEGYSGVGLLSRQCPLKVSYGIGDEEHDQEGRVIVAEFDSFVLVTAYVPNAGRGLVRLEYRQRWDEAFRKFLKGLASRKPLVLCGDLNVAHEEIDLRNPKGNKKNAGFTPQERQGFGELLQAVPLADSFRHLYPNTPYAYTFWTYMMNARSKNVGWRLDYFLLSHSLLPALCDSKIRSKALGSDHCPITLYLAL

[5] = test system: CB-ECFC cells; assay: Capillary tube formation assay on […]; format: cell-based; conditions: about eight hours after seeding
Description: Inhibition of capillary tube formation. The capillary tube formation assay was performed using CB-ECFC cells plated on […]® and treated with APX3330 or control media. ECFCs were cultured as previously described (Blood, 1 Nov. 2004, Vol. 104, No. 9, pp. 2752-2760). ECFC colonies appeared between 5 and 22 days of culture. Colonies were counted by visual inspection using an inverted microscope (Olympus, Lake Success, N.Y.) under ×40 magnification. Cells were passaged as previously described. Blood, 1 Nov. 2004, Vol. 104, No. 9, pp. 2752-2760.)
The tube formation assay was performed as described previously (J. Biol. Chem. 274 (1999), pp. […]). Various concentrations of APX3330 were given to CB-ECFCs for about 30 min at room temperature before seeding and plated onto the layer of […]® at a density of about 1×10^4 cells/well. After about eight hours, the enclosed networks of complete tubes from randomly chosen fields were counted and photographed under a microscope.

[6] = test system: endothelial cells; assay: In vitro tube formation assay; format: cell-based
Description: In vitro tube formation assay.

[7] = APX3330 50 mg/kg, APX2009 25 mg/kg
[8] = APX3330 50 mg/kg, APX2009 25 mg/kg, immunoblot

With `CCC/C(=C\C1=C(OC)C(=O)c2ccccc2C1=O)C(=O)N(CC)CC` [APX2009, [(2E)-2-[(3-methoxy-1,4-dioxo-1,4-dihydronaphthalen-2-yl)methylidene]-N,N-diethylpentanamide]] the BrdU-positive cells [1] was 6.9%±0.58, the “expression of c-Myc, Bcl-2, Bcl-XL” value [2] was “No change in expression” and the “expression of survivin and Cyclin D1” value [2] was “significantly down-regulated”. The “decrease in BrdU+ cells in tumors” value ([3]; APX2009 25 mg/kg ip twice daily) was 60%, the “tumor weight at sacrifice” value [3, 7] was 0.37 ± 0.14 g and the “tumor growth compared to vehicle control” value [3, 7] was “significantly reduced tumor growth”. For the same compound, the “reduction in survivin expression in harvested tumors” value [3, 8] was 64% and the “ratio of cleaved caspase 3 to total caspase 3 in harvested tumors” value [3, 8] was “increase in the ratio of cleaved caspase 3”.
For `CCCCCCCCC/C(=C\C1=C(C)C(=O)C(OC)=C(OC)C1=O)C(=O)O` [APX3330], the “inhibition of the redox function of Ape1/Ref-1” value [4] was “selectively inhibited”, the tube formation [5] was “inhibit tube formation” and the “tube formation, combination of AVASTIN and APX3330” value ([6]; combination use with AVASTIN) was “synergistically more effective than either alone”. The “formation of blood-vessel-like tubules” value ([6]; dose dependent) was “prevented formation of blood-vessel-like tubules”, the BrdU-positive cells [1] was 7.8%±0.64 and the “tumor weight at sacrifice” value [3, 7] was 0.43 ± 0.10 g. For the same compound, the “tumor growth compared to vehicle control” value [3, 7] was “significantly reduced tumor growth” and the “reduction in survivin expression in harvested tumors” value [3, 8] was 42%.
